Measured values taken from publication PMC4047216 (European journal of pharmacology, 2014).

What was measured:
[1] = ref Saadeddin et al., 2004; cited from earlier work
[2] = tested on: HP-LTLC cells; assay: MTT combination of VN/14-1 with thapsigargin, Chou-Talalay analysis; format: cell-based, human; conditions: in combination VN/14-1 + thapsigargin

| SMILES | Oral bioavailability (F) [1] | DRI (dose reduction index) ([2]; 50% inhibition) | DRI (dose reduction index) ([2]; 75% inhibition) | DRI (dose reduction index) ([2]; 95% inhibition) |
| --- | --- | --- | --- | --- |
| CC1=C(/C=C/C(C)=C/C=C/C(C)=C/C(=O)O)C(C)(C)CCC1 [ATRA] | ~ 40% |  |  |  |
| C/C=C(/C)C(=O)O[C@H]1C(C)=C2[C@H]([C@@H]1OC(=O)CCCCCCC)[C@@](C)(OC(C)=O)C[C@H](OC(=O)CCC)[C@@]1(O)[C@H]2OC(=O)[C@@]1(C)O [thapsigargin] |  | 11.498 | 31.584 | 172.494 |
